Results from patent US4550186A, “Binuclear copper (II) carboxylates formed from amine-carboxyboranes” (Duke University, priority 1983, dated 1985).

Columns and labels:
[1] = biological target: T1, orotidine monophosphate decarboxylase (Mus musculus, UniProt P13439); experiment: In vitro orotidine monophosphate decarboxylase activity; assay type: biochemical; conditions: 0.25 to 1.0 mM
T1 construct: OMP decarboxylase domain of UMP synthase
Procedure: (§1) CF1 male mice (~30 g) were implanted with 2×10^6 Ehrlich ascites tumor cells, intraperitoneally on Day 0. Compound I was suspended by homogenation in 0.05% polysorbate.80-water and administered intraperitoneally at 10 and 20 mg/kg for 9 days to determine its effectiveness for inhibition of tumor growth. Mice were sacrificed on Day 10, and the ascites fluid was collected from the peritoneal cavity. The volume and ascrit (packed cell volume) were determined for each animal and the percent inhibition of tumor growth was calculated. For the metabolic studies, mice were treated on Days 8 and 9 with 10 mg/kg of Compound I, intraperitoneally. […]
(§2) Carbamyl phosphate synthetase activity was determined using the reaction medium of Kalman et al [Am. […] Citrulline formed from ornithine was measured at 490 nm by the method of Archibald [J. Biol. Chem., 156, 121 (1944)]. […] The ^14 CO2 generated in 15 min was trapped in 1M KOH and counted. Thymidylate synthetase activity was determined using a post-mitochondrial supernatant (9000 g×10 min) and 5 μCi of 5-^3 H-deoxyuridine monophosphate (14 Ci/mmol) according to the method of Kampf et al [ J. Med. Chem., 19, 903 (1976)]. ^14 C-Formate incorporation into purines was determined by the method of Spassova et al [Biochem. Pharmacol., 25, 923 (1976)] using 0.5 μCi of ^14 C-formic acid (52.0 mCi/mmol). […] The Rf value for xanthine monophosphate was scraped and counted. […]

[2] = test system: purine de novo synthesis of Ehrlich ascites cells; experiment: In vivo formate incorporation into purines; design: species or system mouse
Procedure: as §1, §2

CF1 male mice = experiment: Mouse liver lipid content; assay type: in vivo; conditions: 16 days
Procedure: In CF1 male mice that had been administered test drugs for 16 days, the liver, small intestine and fecal materials (24 hr collection) were removed and a 10% homogenate in 0.25M sucrose+0.001M (ethylenedinitrilo)tetraacetic acid was prepared. An aliquot (2 ml) of the homogenate was extracted by the methods of Floch et al [J. Biol. Chem., 226, 497 (1957)] and Bligh and Dyer [Can. J. Biochem. Physiol., 37, 911 (1957)] and the number of mg of lipid weighed. The lipid was taken up in methylene chloride and the cholesterol level triglyceride levels, neutral lipid content and phospholipid content were determined.
Data are expressed in the Table 2-7 as percent of control ± the standard deviation. The probable significant level (P) between each test group and the control group was determined by the Student's "t" test.

[3] = test system: inosinic acid dehydrogenase; experiment: In vitro inosinic acid dehydrogenase activity; assay type: biochemical, mouse; conditions: 0.25 to 1.0 mM
Procedure: as §1, §2

T1 sequence (P13439 whole entry, the tested form may be a part): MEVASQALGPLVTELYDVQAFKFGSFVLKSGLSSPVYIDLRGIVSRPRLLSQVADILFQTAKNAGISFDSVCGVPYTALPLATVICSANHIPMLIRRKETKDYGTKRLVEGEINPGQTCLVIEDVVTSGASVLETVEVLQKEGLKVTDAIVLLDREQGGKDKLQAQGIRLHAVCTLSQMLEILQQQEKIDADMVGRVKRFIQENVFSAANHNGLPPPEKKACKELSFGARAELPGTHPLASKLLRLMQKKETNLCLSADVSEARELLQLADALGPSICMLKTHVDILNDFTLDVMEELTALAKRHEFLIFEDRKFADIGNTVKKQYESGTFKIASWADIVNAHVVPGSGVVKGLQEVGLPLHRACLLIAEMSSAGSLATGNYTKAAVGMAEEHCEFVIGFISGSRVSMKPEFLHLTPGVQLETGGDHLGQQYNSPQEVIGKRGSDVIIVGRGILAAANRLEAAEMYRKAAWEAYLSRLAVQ

Substance: {Cu[(CH3)3 N.BH2 CO2 ]2.(CH3)3 N.BH2 COOH} [Compound I]
- orotidine monophosphate decarboxylase inhibition [1]: not inhibited
- 14C-Formate incorporation into purines ([2]; 10 mg/kg/day I.P. on Days 8 and 9): 59 ± 6 % Control
- Purine de novo synthesis inhibited ([2]; 10 day Ehrlich ascites cells): 41%
- Cholesterol (CF1 male mice; 2.5 mg/kg): 71 ± 6% of control
- Mg of Lipid (CF1 male mice; 2.5 mg/kg): 82 ± 5% of control
- Neutral Lipids (CF1 male mice; 2.5 mg/kg): 79 ± 5% of control
- Phospholipids (CF1 male mice; 2.5 mg/kg): 67 ± 6% of control
- Protein (CF1 male mice; 2.5 mg/kg): 105 ± 6% of control
- Triglycerides (CF1 male mice; 2.5 mg/kg): 40 ± 3% of control
- Cholesterol (CF1 male mice; 5.0 mg/kg): 74 ± 7% of control
- Mg of Lipid (CF1 male mice; 5.0 mg/kg): 85 ± 6% of control
- Neutral Lipids (CF1 male mice; 5.0 mg/kg): 86 ± 5% of control
- Phospholipids (CF1 male mice; 5.0 mg/kg): 92 ± 7% of control
- Protein (CF1 male mice; 5.0 mg/kg): 92 ± 5% of control
- Triglycerides (CF1 male mice; 5.0 mg/kg): 38 ± 4% of control
- Cholesterol (CF1 male mice; 10.0 mg/kg): 77 ± 7% of control
- Mg of Lipid (CF1 male mice; 10.0 mg/kg): 95 ± 6% of control
- Neutral Lipids (CF1 male mice; 10.0 mg/kg): 87 ± 4% of control
- Phospholipids (CF1 male mice; 10.0 mg/kg): 152 ± 8% of control
- Protein (CF1 male mice; 10.0 mg/kg): 101 ± 8% of control
- Triglycerides (CF1 male mice; 10.0 mg/kg): 36 ± 5% of control
- inosinic acid dehydrogenase inhibition [3]: not inhibited
